# Results published in patent publication US20230096028A1, “BICYCLIC HETEROCYCLYL COMPOUNDS AND USES THEREOF” (Revolution Medicines, Inc., priority 2019, published 2023).
# pIC50, pKd: −log10 of the molar value.
# Key:
# [1] = test system: PC-9 cells (EGFR Ex19Del); test: Potency Assay: pERK (SOS1 pERK IC50 Assay, AlphaLISA SureFire Ultra p-ERK1/2); format: cell-based; details: Homo sapiens; PC-9 cells (EGFR Ex19Del), 1 hour incubation, AlphaLISA p-ERK1/2; read-out: SOS1 pERK IC50
# How it was run: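 PC-9 (EGFR Ex19Del) cells plated overnight, then treated 1 h at 37° C. with 10-point 3-fold dilutions (top 10 μM final) in duplicate. Lysate pERK1/2 measured by AlphaLISA SureFire Ultra; IC50 from 4-parameter sigmoidal fit.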
# [2] = target: T1, SOS1 catalytic domain (residues 564-1049) (Homo sapiens, UniProt Q07889); test: Potency Assay: binding affinity to SOS1 using Surface Plasmon Resonance (SPR); design: SOS1 catalytic domain (residues 564-1049) immobilized on a sensor chip; details: immobilized SOS1 catalytic domain (residues 564-1049), read-out: SOS1 SPR Equilibrium Kd
# T1 sequence (Q07889 564-1049): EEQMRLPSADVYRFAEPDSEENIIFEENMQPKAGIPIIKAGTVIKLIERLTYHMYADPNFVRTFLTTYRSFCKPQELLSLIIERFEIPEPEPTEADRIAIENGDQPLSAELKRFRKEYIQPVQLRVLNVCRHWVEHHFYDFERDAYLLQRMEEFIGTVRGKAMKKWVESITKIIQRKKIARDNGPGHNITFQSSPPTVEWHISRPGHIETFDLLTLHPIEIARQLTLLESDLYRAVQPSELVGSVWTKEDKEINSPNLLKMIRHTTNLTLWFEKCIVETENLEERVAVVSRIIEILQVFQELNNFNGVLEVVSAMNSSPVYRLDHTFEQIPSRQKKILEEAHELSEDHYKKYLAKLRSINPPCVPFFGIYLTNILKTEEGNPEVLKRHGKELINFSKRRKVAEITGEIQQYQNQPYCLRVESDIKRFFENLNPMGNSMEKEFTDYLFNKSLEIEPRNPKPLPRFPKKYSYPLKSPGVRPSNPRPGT
# How it was run: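 Avi-tagged SOS1 catalytic domain captured on streptavidin chip (~6000 RU) in 0.01 M HEPES, 0.15 M NaCl, 0.05% P20. Compound dilution series flowed at 50 μL/min for association, then buffer for dissociation, with double reference subtraction. Kd derived from end-of-association binding response plotted against concentration.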
# [3] = target: T1, SOS1 catalytic domain (residues 564-1049); test: Mode of Action Assay: inhibition of SOS1 nucleotide exchange activity (SOS1 TR-FRET IC50 Assay)
Compound,pIC50 [1],pKd [2],pIC50 [3]
C[C@@H](Nc1nc(Cl)nc2c1CN(C(=O)N1CCNCC1)C2)c1cc(N)cc(C(F)(F)F)c1 [Example 356],> 6.00,> 6.40,> 6.00
C[C@@H](Nc1nc(Cl)nc2c1CN(C(=O)N1CCN(C3COC3)CC1)C2)c1cccc(C(F)(F)CO)c1 [Example 357],> 6.00,> 6.40,> 6.00
C[C@@H](Nc1nc(Cl)nc2c1CN(C(=O)N1CCNC(C(F)(F)F)C1)C2)c1cc(N)cc(C(F)(F)F)c1 (stereo partly drawn) [Example 359],> 6.00,> 6.40,> 6.00
C[C@@H](Nc1nc(Cl)nc2c1CN(C(=O)N1C[C@H]3C[C@@H]1CN3)C2)c1cc(N)cc(C(F)(F)F)c1 [Example 360],< 6.00,> 6.40,> 6.00
C[C@@H](Nc1nc(Cl)nc2c1CN(C(=O)N1CCNc3ncncc31)C2)c1cccc(C(F)(F)F)c1 [Example 362],> 6.00,> 6.40,> 6.00
C[C@@H](Nc1nc(Cl)nc2c1CN(C(=O)N1CCNC(C(F)(F)F)C1)C2)c1cccc(C(F)(F)F)c1 (stereo partly drawn) [Example 363],> 6.00,> 6.40,> 6.00
C[C@@H](Nc1nc(Cl)nc2c1CN(C(=O)N1CCNCC1)C2)c1cccc(C(F)(F)F)c1 [Example 364],> 6.00,> 6.40,> 6.00
C[C@@H](Nc1nc(Cl)nc2c1CN(C(=O)N1CCOc3ncccc31)C2)c1cc(N)cc(C(F)(F)F)c1 [Example 365],> 6.00,> 6.40,> 6.00
C[C@@H](Nc1nc(Cl)nc2c1CN(C(=O)N1CCOc3ncccc31)C2)c1cccc(C(F)(F)F)c1 [Example 366],> 6.00,> 6.40,> 6.00
C[C@@H](Nc1nc(Cl)nc2c1CN(C(=O)N1CCNc3ncccc31)C2)c1cccc(C(F)(F)F)c1 [Example 370],> 6.00,> 6.40,> 6.00
C[C@@H](Nc1nc(Cl)nc2c1CN(C(=O)N1CCNC3(CC3)C1)C2)c1cccc(C(F)(F)F)c1 [Example 374],> 6.00,> 6.40,> 6.00
C[C@@H](Nc1nc(Cl)nc2c1CN(C(=O)N1CCNc3ccncc31)C2)c1cccc(C(F)(F)F)c1 [Example 375],> 6.00,> 6.40,> 6.00
C[C@@H](Nc1nc(Cl)nc2c1CN(C(=O)N1CCNC(=O)C1)C2)c1cccc(C(F)(F)F)c1 [Example 376],> 6.00,> 6.40,> 6.00
C[C@@H](Nc1nc(Cl)nc2c1CN(C(=O)N1CCCNCC1)C2)c1cccc(C(F)(F)F)c1 [Example 377],> 6.00,> 6.40,> 6.00
C[C@@H](Nc1nc(Cl)nc2c1CN(C(=O)N1C[C@H]3CNCC[C@H]3C1)C2)c1cccc(C(F)(F)F)c1 [Example 378],< 6.00,> 6.40,> 6.00
C[C@@H](Nc1nc(Cl)nc2c1CN(C(=O)N1C[C@H]3CNC[C@H]3C1)C2)c1cccc(C(F)(F)F)c1 [Example 380],< 6.00,> 6.40,> 6.00
CC(=O)N1CCN(C(=O)N2Cc3nc(Cl)nc(N[C@H](C)c4cccc(C(F)(F)F)c4)c3C2)CC1 [Example 381],> 6.00,> 6.40,> 6.00
C[C@@H](Nc1nc(Cl)nc2c1CN(C(=O)N1CC3COCC(C1)N3)C2)c1cccc(C(F)F)c1F [Example 385],> 6.00,> 6.40,> 6.00
C[C@@H](Nc1nc(Cl)nc2c1CN(C(=O)N1CC3CCC(C1)N3)C2)c1cccc(C(F)F)c1F [Example 388],> 6.00,> 6.40,> 6.00
C[C@@H](Nc1nc(Cl)nc2c1CN(C(=O)N1C3CCC1COC3)C2)c1cccc(C(F)F)c1F [Example 396],> 6.00,> 6.40,> 6.00

# Next, values leading:
pIC50 [1],pKd [2],pIC50 [3],Compound
< 6.00,> 6.40,> 6.00,C[C@@H](Nc1nc(Cl)nc2c1CN(C(=O)N1CCCC13CCNC3)C2)c1cccc(C(F)F)c1F (stereo partly drawn) [Example 382]
> 6.00,> 6.40,> 6.00,C[C@@H](Nc1nc(Cl)nc2c1CN(C(=O)N1CCN(C3COC3)CC1)C2)c1cccc(C(F)F)c1F [Example 383]
> 6.00,> 6.40,> 6.00,C[C@@H](Nc1nc(Cl)nc2c1CN(C(=O)N1CC3CCC1CN3)C2)c1cccc(C(F)F)c1F (stereo partly drawn) [Example 384]
> 6.00,> 6.40,> 6.00,C[C@@H](Nc1nc(Cl)nc2c1CN(C(=O)N1CCNCC1c1cccnc1)C2)c1cccc(C(F)F)c1F (stereo partly drawn) [Example 386]
> 6.00,> 6.40,> 6.00,C[C@@H](Nc1nc(Cl)nc2c1CN(C(=O)N1CCNC(C(F)(F)F)C1)C2)c1cccc(C(F)F)c1F (stereo partly drawn) [Example 387]
< 6.00,> 6.40,> 6.00,C[C@@H](Nc1ncnc2c1CN(C(=O)N1CCOCC1)C2)c1cccc(C(F)F)c1F [Example 389]
> 6.00,> 6.40,> 6.00,C[C@@H](Nc1nc(Cl)nc2c1CN(C(=O)N1CCC3(CCN3)CC1)C2)c1cccc(C(F)F)c1F [Example 390]
> 6.00,> 6.40,> 6.00,CC1CNCCN1C(=O)N1Cc2nc(Cl)nc(N[C@H](C)c3cccc(C(F)F)c3F)c2C1 (stereo partly drawn) [Example 391]
< 6.00,> 6.40,> 6.00,C[C@@H](Nc1nc(Cl)nc2c1CN(C(=O)N1CCC13CNC3)C2)c1cccc(C(F)F)c1F [Example 392]
< 6.00,> 6.40,> 6.00,C[C@@H](Nc1nc(Cl)nc2c1CN(C(=O)N1CC3(CNC3)C1)C2)c1cccc(C(F)F)c1F [Example 393]
> 6.00,> 6.40,> 6.00,CC(=O)N1CCN(C(=O)N2Cc3nc(Cl)nc(N[C@H](C)c4cccc(C(F)F)c4F)c3C2)CC1 [Example 394]
> 6.00,> 6.40,> 6.00,C[C@@H](Nc1nc(Cl)nc2c1CN(C(=O)N1CCC(O)CC1)C2)c1cccc(C(F)F)c1F [Example 395]
> 6.00,> 6.40,> 6.00,C[C@@H]1CN(C(=O)N2Cc3nc(Cl)nc(N[C@H](C)c4cccc(C(F)F)c4F)c3C2)C[C@H](C)N1C [Example 397]
< 6.00,> 6.40,> 6.00,C[C@@H](Nc1nc(Cl)nc2c1CN(C(=O)N1CC3CNCC(C1)O3)C2)c1cccc(C(F)F)c1F [Example 398]
< 6.00,> 6.40,> 6.00,C[C@@H](Nc1nc(Cl)nc2c1CN(C(=O)N1C[C@@H]3C[C@H]1CN3)C2)c1cccc(C(F)F)c1F [Example 399]
> 6.00,> 6.40,> 6.00,C[C@@H](Nc1nc(Cl)nc2c1CN(C(=O)N1CCCNCC1)C2)c1cccc(C(F)F)c1F [Example 400]
> 6.00,> 6.40,> 6.00,C[C@@H](Nc1nc(Cl)nc2c1CN(C(=O)N1CCNC(c3ccncc3)C1)C2)c1cccc(C(F)F)c1F (stereo partly drawn) [Example 401]
> 6.00,> 6.40,> 6.00,C[C@@H](Nc1nc(Cl)nc2c1CN(C(=O)N1CCNCC(F)(F)C1)C2)c1cccc(C(F)F)c1F [Example 402]
> 6.00,> 6.40,> 6.00,C[C@@H](Nc1nc(Cl)nc2c1CN(C(=O)N1CCNC(=O)C1)C2)c1cccc(C(F)F)c1F [Example 403]
> 6.00,> 6.40,> 6.00,C[C@@H](Nc1nc(Cl)nc2c1CN(C(=O)N1CCNCC(F)C1)C2)c1cccc(C(F)F)c1F (stereo partly drawn) [Example 404]
< 6.00,> 6.40,> 6.00,C[C@@H](Nc1nc(Cl)nc2c1CN(C(=O)N1CCNCC13COC3)C2)c1cccc(C(F)F)c1F [Example 405]
> 6.00,> 6.40,> 6.00,C[C@@H](Nc1nc(Cl)nc2c1CN(C(=O)N1C[C@H]3C[C@@H]1CN3)C2)c1cccc(C(F)F)c1F [Example 406]
> 6.00,> 6.40,> 6.00,C[C@@H](Nc1nc(Cl)nc2c1CN(C(=O)N1CCNCC1)C2)c1cccc(C(F)F)c1F [Example 407]
> 6.00,> 6.40,> 6.00,C[C@@H](Nc1nc(Cl)nc2c1CN(C(=O)C1(F)CN(C)C1)C2)c1cccc(C(F)F)c1F [Example 408]
